How the values were obtained:
[1] = Rapid equilibrium dialysis, nonspecific binding to human liver cytosol
Procedure: Nonspecific binding of test chemicals to human liver cytosol (100 μg) was determined using a Rapid Equilibrium Dialysis Kit (Thermo Fisher Scientific), as described in detail in our previous publication.[27]
MOLPHA- D-25- 00208 Supplemental Materials. Kweh et al. Mol Pharmacol […]
inhibition constants (Ki,u ) for the inhibition of human liver cytosolic carbazeran 4-oxidation A mixture containing a test chemical (10 µM; dissolved in a final concentration of 0.5% v/v DMSO) and human liver cytosol (100 µg total cytosolic protein) were dialyzed as described under Materials and Methods. Chemical concentr ation in each chamber wa s quantified by UPLC-MS/MS. Data are exp ressed as mean ± S.D. of three independent experiments. […]
a, K I,u = f u × K I, where fu was calcul ated from 10 µ M of chemicals in human liver cytosol.

[2] = molecular target: T1, human liver cytosolic AOX1 (Homo sapiens, UniProt Q06278); assay: Partition ratio determination (titration, human liver cytosol); assay type: biochemical; parameters: Enzymatic reaction was initiated by adding human liver cytosol (100 μg); tissue Corning, Inc. (Gentest brand) 452115; host or cells: human liver cytosol, pool of 150 donors; conditions: for turnover number and partition ratio, fold greater than erlotinib / partition ratio, fold greater than erlotinib: Table 1 values; for Turnover Number: human liver cytosol; for Partition Ratio: turnover number minus 1
T1 sequence (Q06278 1-1338): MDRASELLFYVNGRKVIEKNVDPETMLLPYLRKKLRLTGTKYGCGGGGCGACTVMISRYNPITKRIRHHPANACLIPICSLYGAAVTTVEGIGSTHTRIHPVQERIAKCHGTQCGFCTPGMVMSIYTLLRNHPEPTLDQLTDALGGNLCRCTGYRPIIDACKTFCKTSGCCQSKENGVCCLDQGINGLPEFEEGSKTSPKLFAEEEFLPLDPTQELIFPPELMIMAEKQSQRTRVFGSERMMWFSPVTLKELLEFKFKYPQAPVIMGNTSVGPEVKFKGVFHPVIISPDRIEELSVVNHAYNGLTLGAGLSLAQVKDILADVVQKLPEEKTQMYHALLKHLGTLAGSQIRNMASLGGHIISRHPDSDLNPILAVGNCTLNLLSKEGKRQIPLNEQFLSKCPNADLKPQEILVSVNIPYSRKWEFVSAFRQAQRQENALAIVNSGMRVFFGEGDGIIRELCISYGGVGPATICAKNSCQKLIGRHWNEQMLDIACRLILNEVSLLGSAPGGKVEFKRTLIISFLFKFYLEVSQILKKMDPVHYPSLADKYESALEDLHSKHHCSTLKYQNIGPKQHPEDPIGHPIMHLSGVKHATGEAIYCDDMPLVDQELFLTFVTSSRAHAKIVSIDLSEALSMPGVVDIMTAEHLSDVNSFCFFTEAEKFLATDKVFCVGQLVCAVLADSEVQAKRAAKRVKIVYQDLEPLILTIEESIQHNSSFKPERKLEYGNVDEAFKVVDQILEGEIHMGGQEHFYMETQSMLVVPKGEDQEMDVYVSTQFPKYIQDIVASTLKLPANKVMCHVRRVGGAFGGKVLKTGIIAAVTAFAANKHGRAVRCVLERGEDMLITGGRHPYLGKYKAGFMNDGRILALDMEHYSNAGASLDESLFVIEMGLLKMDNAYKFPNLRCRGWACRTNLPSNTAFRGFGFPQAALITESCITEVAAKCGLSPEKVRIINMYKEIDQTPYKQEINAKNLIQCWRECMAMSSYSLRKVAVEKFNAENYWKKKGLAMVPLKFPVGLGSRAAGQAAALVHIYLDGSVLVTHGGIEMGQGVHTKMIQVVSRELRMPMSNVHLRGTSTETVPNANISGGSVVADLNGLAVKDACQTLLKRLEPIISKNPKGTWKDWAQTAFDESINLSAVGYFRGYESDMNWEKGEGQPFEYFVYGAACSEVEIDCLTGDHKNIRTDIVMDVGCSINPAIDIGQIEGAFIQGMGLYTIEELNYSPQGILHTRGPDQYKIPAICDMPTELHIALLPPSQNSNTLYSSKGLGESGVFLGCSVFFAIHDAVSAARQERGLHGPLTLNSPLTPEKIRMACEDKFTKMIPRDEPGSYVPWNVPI
Procedure: The enzyme kinetic experiments were conducted as described above. The incubation was allowed to proceed until saturation of enzyme has been reached (6 or 18 minutes, as specified in each figure legend). Carbazeran 4-oxidation was plotted against the ratio of inactivator concentration to AOX1 protein concentration in the incubation mixture of 200 μL. The specific lot of human liver cytosol (#38292) used in this study contained 1.05 ± 0.01 pmol/μL (mean ± SD) of AOX1 protein, as assessed by capillary nanoproteomic immunoassay.[27] The turnover number was the extrapolation of the intercept of the 2 linear regression lines to the x-axis, which was determined by solving the 2 linear regression equations. The partition ratio was calculated by subtracting the turnover number by 1, assuming 1:1 stoichiometry between the inactivator and the enzyme.[29]

[3] = 10 μM, human liver cytosol 100 μg protein, 4-hour dialysis

SMILES	Fraction Unbound (fu) ([1]; human, cytosol)	turnover number and partition ratio, fold greater than erlotinib [2] [fold]	Turnover Number [2]	Partition Ratio [2]	fraction unbound at 4 h, 10 μM ([1]; human, human liver cytosol)	partition ratio, fold greater than erlotinib [2] [fold]	Turnover Number ([2]; listed as 3-vinylerlotinib)	Partition Ratio ([2]; listed as 3-vinylerlotinib)	Fraction Unbound (fu) [1, 3]
C#Cc1cc(Nc2ncnc3cc(OCCOC)c(OCCOC)cc23)ccc1C [4′-Methylerlotinib, 4′-methylerlotinib]	0.73 ± 0.05	1.6	42.9 ± 4.32	41.9 ± 4.32					
C#Cc1cccc(Nc2ncnc3cc(OCCOC)c(OCCOC)cc23)c1 [Erlotinib]			26.9 ± 1.30		0.56				
C#Cc1cccc(Nc2nc(C)nc3cc(OCCOC)c(OCCOC)cc23)c1 [2-Methylerlotinib, 2-methylerlotinib]	0.51 ± 0.07		49.9 ± 1.40	48.9 ± 1.40		1.9			
C=Cc1cccc(Nc2ncnc3cc(OCCOC)c(OCCOC)cc23)c1 [3-Vinylerlotinib, 3-vinylerlotinib]	0.78 ± 0.04	10	271 ± 23.5∗∗∗	270 ± 23.5∗∗∗		10	271	270	
C#Cc1cccc(Nc2ncnc3cc(OCCOC)c(OCCO)cc23)c1 [O-Desmethylerlotinib, O-desmethylerlotinib]			35.2 ± 4.78	34.2 ± 4.78					0.84
C#Cc1cccc(Nc2ncnc3cc(OCCO)c(OCCO)cc23)c1 [O-Didesmethylerlotinib, O-didesmethylerlotinib]			24.6 ± 1.29	23.6 ± 1.29					0.84

Reference: article PMC12881681 (Molecular Pharmacology, 2025)
